Key:
[1] = tested on: morningglory; assay: Test A pre-/postemergence greenhouse test; type: in vivo, Ipomoea spp.; conditions: for Plant response rating, Morningglory: 0 to 100 scale where 0 is no effect and 100 is complete control; for Morningglory plant response rating: 0 to 100 scale
Method in brief: (§1)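 Greenhouse herbicide screen, pre- and postemergence in parallel. Soil: loam plus sand. Formulation: non-phytotoxic solvent mix with surfactant. Postemergence stage: one to two leaves, 2–10 cm height. Evaluation: visual injury, compared with untreated controls, about 10 days after treatment.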

[2] = tested on: crabgrass; assay: Test A pre-/postemergence greenhouse test; type: in vivo, Digitaria sanguinalis; conditions: for Plant response rating, Crabgrass, Large: 0 to 100 scale where 0 is no effect and 100 is complete control; for Crabgrass, Large plant response rating: 0 to 100 scale
Method in brief: as §1

[3] = tested on: velvetleaf; assay: Test A pre-/postemergence greenhouse test; type: in vivo, Abutilon theophrasti; conditions: for Plant response rating, Velvetleaf: 0 to 100 scale where 0 is no effect and 100 is complete control; for Velvetleaf plant response rating: 0 to 100 scale
Method in brief: as §1

[4] = tested on: giant foxtail; assay: Test A pre-/postemergence greenhouse test; type: in vivo, Setaria faberi; conditions: for Plant response rating, Foxtail, Giant: 0 to 100 scale where 0 is no effect and 100 is complete control; for Foxtail, Giant plant response rating: 0 to 100 scale
Method in brief: as §1

[5] = tested on: wheat; assay: Test A pre-/postemergence greenhouse test; type: in vivo, Triticum aestivum; conditions: for Plant response rating, Wheat: 0 to 100 scale where 0 is no effect and 100 is complete control; for Wheat plant response rating: 0 to 100 scale
Method in brief: as §1

[6] = tested on: redroot pigweed; assay: Test A pre-/postemergence greenhouse test; type: in vivo, Amaranthus retroflexus; conditions: for Plant response rating, Pigweed: 0 to 100 scale where 0 is no effect and 100 is complete control; for Pigweed plant response rating: 0 to 100 scale
Method in brief: as §1

[7] = tested on: umbrella sedge; assay: Test C flooded paddy test; type: in vivo, Cyperus difformis; conditions: Flood
Method in brief: (§2)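 In-water treatment: compound dosed into 3 cm flood over soil, water level unchanged throughout. Controls run alongside; visual assessment at day 13–15.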

[8] = tested on: duck salad; assay: Test C flooded paddy test; type: in vivo, Heteranthera limosa; conditions: Flood
Method in brief: as §2

[9] = tested on: corn; assay: Test A pre-/postemergence greenhouse test; type: in vivo, Zea mays; conditions: for Plant response rating, Corn: 0 to 100 scale where 0 is no effect and 100 is complete control; for Corn plant response rating: 0 to 100 scale
Method in brief: as §1

[10] = tested on: barnyardgrass; assay: Test A pre-/postemergence greenhouse test; type: in vivo, Echinochloa crus-galli; conditions: for Plant response rating, Barnyardgrass: 0 to 100 scale where 0 is no effect and 100 is complete control; for Barnyardgrass plant response rating: 0 to 100 scale
Method in brief: as §1

[11] = tested on: rice; assay: Test C flooded paddy test; type: in vivo, Oryza sativa; conditions: Flood
Method in brief: as §2

[12] = tested on: barnyardgrass; assay: Test C flooded paddy test; type: in vivo, Echinochloa crus-galli; conditions: Flood
Method in brief: as §2

[13] = Postemergence, 500 g ai/ha, 0 is no effect, 100 is complete control
[14] = Preemergence, 125 g ai/ha, 0 no effect, 100 complete control
[15] = 31 g ai/ha, scale 0 to 100 (0 no effect, 100 complete control)
[16] = 125 g ai/ha, scale 0 to 100, 0 no effect, 100 complete control, 13 to 15 days
[17] = 250 g ai/ha, scale 0 to 100, 0 no effect, 100 complete control, 13 to 15 days
[18] = 62 g ai/ha, scale 0 to 100, 0 no effect, 100 complete control, 13 to 15 days
[19] = Preemergence, 500 g ai/ha, 0 no effect, 100 complete control
[20] = 62 g ai/ha, scale 0 to 100 (0 no effect, 100 complete control)

Cn1nc(C(F)(F)F)c(C[S+]([O-])c2c(F)ccc[n+]2[O-])c1Cl (centres unmarked) [Compound 52]
60: Velvetleaf plant response rating [3, 13] | Foxtail, Giant plant response rating [4, 13] | Plant response rating, Ducksalad [8, 17]
100: Plant response rating, Pigweed ([6]; Preemergence, 500 g ai/ha)
90: Plant response rating, Foxtail, Giant ([4]; Preemergence, 500 g ai/ha)
80: Plant response rating, Barnyardgrass ([10]; Preemergence, 500 g ai/ha)
30: Plant response rating, Crabgrass, Large ([2]; Postemergence, 125 g ai/ha) | Foxtail, Giant plant response rating [4, 14] | Corn plant response rating [9, 13]
50: Plant response rating, Velvetleaf ([3]; Postemergence, 125 g ai/ha) | Wheat plant response rating [5, 13]
20: Morningglory plant response rating [1, 13]
40: Plant response rating, Morningglory ([1]; Preemergence, 500 g ai/ha) | Crabgrass, Large plant response rating [2, 13] | Plant response rating, Crabgrass, Large ([2]; Preemergence, 500 g ai/ha) | Plant response rating, Foxtail, Giant ([4]; Postemergence, 125 g ai/ha) | Plant response rating, Pigweed ([6]; Postemergence, 125 g ai/ha) | Plant response rating, Sedge, Umbrella [7, 16] | Plant response rating, Ducksalad [8, 16] | Plant response rating, Barnyardgrass ([10]; Postemergence, 125 g ai/ha)
85: Plant response rating, Sedge, Umbrella [7, 17]
10: Barnyardgrass plant response rating [10, 14]
0: Plant response rating, Morningglory ([1]; Postemergence, 125 g ai/ha) | Morningglory plant response rating [1, 14] | Crabgrass, Large plant response rating [2, 14] | Velvetleaf plant response rating [3, 14] | Plant response rating, Velvetleaf ([3]; Preemergence, 500 g ai/ha) | Plant response rating, Wheat ([5]; Postemergence, 125 g ai/ha) | Wheat plant response rating [5, 14] | Plant response rating, Wheat ([5]; Preemergence, 500 g ai/ha) | Plant response rating, Sedge, Umbrella [7, 15] | Plant response rating, Ducksalad [8, 15] | Plant response rating, Ducksalad [8, 18] | Plant response rating, Corn ([9]; Postemergence, 125 g ai/ha) | Corn plant response rating [9, 14] | Plant response rating, Corn ([9]; Preemergence, 500 g ai/ha) | Plant response rating, Rice [11, 15] | Plant response rating, Rice [11, 18] | Plant response rating, Rice [11, 16] | Plant response rating, Rice [11, 17] | Plant response rating, Barnyardgrass [12, 15] | Plant response rating, Barnyardgrass [12, 18] | Plant response rating, Barnyardgrass [12, 16] | Plant response rating, Barnyardgrass [12, 17]
70: Pigweed plant response rating [6, 13] | Barnyardgrass plant response rating [10, 13]

CC(Oc1c(CS(=O)(=O)c2ccc(Cl)c[n+]2[O-])c(C(F)(F)F)nn1C)C(F)(F)F (centres unmarked) [Compound 95]
90: Plant response rating, Foxtail, Giant ([4]; Preemergence, 500 g ai/ha) | Plant response rating, Barnyardgrass ([10]; Preemergence, 500 g ai/ha)
50: Plant response rating, Barnyardgrass ([10]; Postemergence, 125 g ai/ha)
10: Plant response rating, Pigweed ([6]; Preemergence, 500 g ai/ha) | Barnyardgrass plant response rating [10, 14]
20: Morningglory plant response rating [1, 13] | Plant response rating, Morningglory ([1]; Preemergence, 500 g ai/ha) | Plant response rating, Crabgrass, Large ([2]; Postemergence, 125 g ai/ha) | Crabgrass, Large plant response rating [2, 14] | Plant response rating, Foxtail, Giant ([4]; Postemergence, 125 g ai/ha) | Plant response rating, Rice [11, 17] | Plant response rating, Barnyardgrass [12, 17]
0: Plant response rating, Morningglory ([1]; Postemergence, 125 g ai/ha) | Morningglory plant response rating [1, 14] | Velvetleaf plant response rating [3, 14] | Velvetleaf plant response rating [3, 19] | Wheat plant response rating [5, 14] | Plant response rating, Pigweed ([6]; Postemergence, 125 g ai/ha) | Pigweed plant response rating [6, 14] | Plant response rating, Sedge, Umbrella [7, 20] | Plant response rating, Ducksalad [8, 20] | Corn plant response rating [9, 13] | Corn plant response rating [9, 14] | Plant response rating, Corn ([9]; Preemergence, 500 g ai/ha) | Plant response rating, Rice [11, 20] | Plant response rating, Barnyardgrass [12, 20]
35: Plant response rating, Sedge, Umbrella [7, 17]
40: Plant response rating, Velvetleaf ([3]; Postemergence, 125 g ai/ha) | Velvetleaf plant response rating [3, 13]
30: Wheat plant response rating [5, 13] | Wheat plant response rating [5, 19] | Pigweed plant response rating [6, 13]
70: Foxtail, Giant plant response rating [4, 14] | Barnyardgrass plant response rating [10, 13]
80: Crabgrass, Large plant response rating [2, 13] | Plant response rating, Crabgrass, Large ([2]; Preemergence, 500 g ai/ha) | Foxtail, Giant plant response rating [4, 13] | Plant response rating, Ducksalad [8, 17]

Cn1nc(C(F)(F)C(F)(F)F)c(CS(=O)(=O)c2ccc(Cl)c[n+]2[O-])c1OCC(F)(F)F [Compound 100]
40: Plant response rating, Crabgrass, Large ([2]; Postemergence, 125 g ai/ha) | Crabgrass, Large plant response rating [2, 14] | Plant response rating, Barnyardgrass ([10]; Postemergence, 125 g ai/ha)
90: Foxtail, Giant plant response rating [4, 13] | Foxtail, Giant plant response rating [4, 19] | Barnyardgrass plant response rating [10, 19]
80: Crabgrass, Large plant response rating [2, 13] | Crabgrass, Large plant response rating [2, 19] | Pigweed plant response rating [6, 19]
60: Foxtail, Giant plant response rating [4, 14] | Pigweed plant response rating [6, 13] | Pigweed plant response rating [6, 14] | Barnyardgrass plant response rating [10, 13]
0: Plant response rating, Morningglory ([1]; Postemergence, 125 g ai/ha) | Morningglory plant response rating [1, 14] | Plant response rating, Velvetleaf ([3]; Postemergence, 125 g ai/ha) | Velvetleaf plant response rating [3, 14] | Plant response rating, Wheat ([5]; Postemergence, 125 g ai/ha) | Wheat plant response rating [5, 13] | Wheat plant response rating [5, 14] | Plant response rating, Pigweed ([6]; Postemergence, 125 g ai/ha) | Plant response rating, Sedge, Umbrella [7, 20] | Plant response rating, Sedge, Umbrella [7, 17] | Plant response rating, Ducksalad [8, 20] | Plant response rating, Corn ([9]; Postemergence, 125 g ai/ha) | Corn plant response rating [9, 13] | Corn plant response rating [9, 14] | Corn plant response rating [9, 19] | Barnyardgrass plant response rating [10, 14] | Plant response rating, Rice [11, 20] | Plant response rating, Rice [11, 17] | Plant response rating, Barnyardgrass [12, 20] | Plant response rating, Barnyardgrass [12, 17]
10: Morningglory plant response rating [1, 19] | Wheat plant response rating [5, 19]
50: Velvetleaf plant response rating [3, 19] | Plant response rating, Foxtail, Giant ([4]; Postemergence, 125 g ai/ha)
30: Plant response rating, Ducksalad [8, 17]
20: Morningglory plant response rating [1, 13] | Velvetleaf plant response rating [3, 13]

Cc1cc[n+]([O-])c([S+]([O-])Cc2c(C(F)(F)F)nn(C)c2OC(C)C(F)(F)F)c1 (centres unmarked) [Compound 88]
70: Morningglory plant response rating [1, 14] | Wheat plant response rating [5, 13] | Plant response rating, Ducksalad [8, 17]
100: Plant response rating, Foxtail, Giant ([4]; Preemergence, 500 g ai/ha) | Plant response rating, Pigweed ([6]; Preemergence, 500 g ai/ha) | Plant response rating, Barnyardgrass ([10]; Preemergence, 500 g ai/ha)
30: Plant response rating, Wheat ([5]; Postemergence, 125 g ai/ha) | Plant response rating, Pigweed ([6]; Postemergence, 125 g ai/ha) | Plant response rating, Barnyardgrass ([10]; Postemergence, 125 g ai/ha) | Plant response rating, Barnyardgrass [12, 17]
50: Plant response rating, Crabgrass, Large ([2]; Postemergence, 125 g ai/ha) | Velvetleaf plant response rating [3, 13] | Plant response rating, Foxtail, Giant ([4]; Postemergence, 125 g ai/ha) | Plant response rating, Corn ([9]; Preemergence, 500 g ai/ha)
60: Plant response rating, Morningglory ([1]; Postemergence, 125 g ai/ha) | Corn plant response rating [9, 13] | Barnyardgrass plant response rating [10, 14]
45: Plant response rating, Rice [11, 17]
0: Plant response rating, Velvetleaf ([3]; Postemergence, 125 g ai/ha) | Velvetleaf plant response rating [3, 14] | Plant response rating, Sedge, Umbrella [7, 20] | Plant response rating, Ducksalad [8, 20] | Corn plant response rating [9, 14] | Plant response rating, Rice [11, 20] | Plant response rating, Barnyardgrass [12, 20]
90: Morningglory plant response rating [1, 13] | Plant response rating, Morningglory ([1]; Preemergence, 500 g ai/ha) | Plant response rating, Crabgrass, Large ([2]; Preemergence, 500 g ai/ha) | Velvetleaf plant response rating [3, 19] | Foxtail, Giant plant response rating [4, 13] | Foxtail, Giant plant response rating [4, 14] | Pigweed plant response rating [6, 14]
20: Crabgrass, Large plant response rating [2, 14] | Wheat plant response rating [5, 14] | Plant response rating, Corn ([9]; Postemergence, 125 g ai/ha)
85: Plant response rating, Sedge, Umbrella [7, 17]
80: Crabgrass, Large plant response rating [2, 13] | Wheat plant response rating [5, 19] | Pigweed plant response rating [6, 13] | Barnyardgrass plant response rating [10, 13]

Reference: US20100298141A1, “SUBSTITUTED PYRIDINE N-OXIDE HERBICIDES” (E. I. DU PONT DE NEMOURS AND COMPANY, priority 2007, published 2010)
